Test results published in patent US6558900B2, “Regulation of apoptosis and in vitro model for studies thereof” (Emory University, priority 1996, dated 2003).

Experiments:
CPP32 [1] = test: dATP and cytochrome c-dependent activation of CPP32 in S-100 from human embryonic kidney 293 cells; type: biochemical
Experimental: (§1) FIG. 8 illustrates dATP and cytochrome c-dependent activation of CPP32 in S-100 cytosol preparations (immunodepleted of cytochrome c) from human embryonic kidney 293 cells and human monoblastic U937 cells. CPP32 activation reactions were carried out as described in FIG. 7 except 25 μg of S-100 was used in each reaction. 1 mM of dATP was present in lanes 2, 4, 6, 8, 10, and 12. Lanes 1 and 2, S-100 fraction from 293 cells; Lanes 3-4, S-100 fraction from 293 cells immunodepleted of cytochrome c; lanes 5 and 6, S-100 fraction from 293 cells immunodepleted of cytochrome c supplemented with 0.2 μg of Apaf-2 purified through the Mono S column step; Lanes 7 and 8, S-100 fraction from U937 cells; […], S-100 fraction from U937 cells immunodepleted of cytochrome c; lanes 11,12, S-100 fraction from U937 cells immunodepleted of cytochrome c supplemented with 0.2 μg of Apaf-2 purified through Mono S column step.
(§2) To investigate whether the dATP and cytochrome c-dependent activation of CPP32 is a general phenomenon, cytosols were prepared from human embryonic kidney 293 cells and human monoblastic leukemia U937 cells.
(§3) 293 cells were set up at 5×10^5 cells per 100 mm dish in medium A [Dulbecco's modified Eagle's medium (DMEM) supplemented with 10% (v/v) heat-inactivated fetal calf serum, 100 U/ml penicillin and 100 μg/ml streptomycin sulfate]. […]

CPP32 [2] = test: Activation of endogenous CPP32 in HeLa cell S-100 (Western blot; cleavage of 35S-labeled PARP and SREBP-2); type: biochemical, human; settings: 1 mM nucleotide
Experimental: FIGS. 1A-1D illustrate dATP-dependent activation of CPP32 and DNA fragmentation in vitro. Aliquots (10 μl) of HeLa cell S-100 (50 μg) were incubated alone (lane 1), in the presence of 1 mM ATP (lane 2), or in the presence of 1 mM dATP (lane 3) at 30° C. for 1 hr in a final volume of 20 μl of buffer A. FIG. 1A, samples were subjected to SDS-PAGE and transferred to a nitrocellulose filter, probed with a monoclonal anti-CPP32 antibody, and the antigen/antibody complex was visualized by the ECL method. The filter was exposed to Kodak X-OMAT AR X-ray film for 1 min. In FIG. 1B, an aliquot of 10 μl of in vitro translated, ^35S-labeled PARP was added to each reaction. After 5 min, the samples were subjected to SDS-PAGE and transferred to a nitrocellulose filter. The filter was exposed to film for 2 hr at room temperature. In FIG. 1C, a 5 μl aliquot of in vitro translated, ^35S-labeled SREBP-2 was added to each reaction. After incubation at 30° C. for 30 min, the samples were subjected to SDS-PAGE, the gel was dried and exposed to film for 2 hr at room temperature. In FIG. 1D, a 50 μlaliquot of HeLa cell S-100 (250 μg) was incubated with 6 μl Hamster Liver nuclei in the absence (lane 1), or presence of 1 mM ATP (lane 2) or dATP (lane 3) for 2 hr at 37° C. in a final volume of 60 μl of buffer A. DNA was isolated as described in the Examples and size-separated by agarose gel electrophoresis (2% agarose), and the DNA was visualized by ethidium bromide staining.
Activation of CPP32 and DNA fragmentation are two well characterized biochemical markers of apoptosis and its initiation. With the goal of producing an in vitro system that duplicates apoptosis, we prepared 100,000×g cytosolic supernatant (S-100) from suspension cultures of HeLa cells. The activation of CPP32 is the result of cleavage of its 32 kDa precursor into the 20 kDa NH2-terminal fragment and 11 kDa COOH-terminal fragment [Nicholson et al. (1995) supra], thus the activation of CPP32 in the HeLa cell S-100 was monitored by Western blot analysis using a monoclonal antibody against the 20 kDa fragment of CPP32 (FIG. 1A). The enzymatic activity of CPP32 was assayed by measuring the cleavage of two ^35S-labeled substrates, PARP (FIG. 1B) and SREBP-2 (FIG. 1C). DNA fragmentation was assayed by incubating the HeLa cell S-100 with nuclei isolated from hamster liver followed by genomic DNA extraction and analysis by agarose gel electrophoresis. […] The sizes of the cleaved products of PARP and SREBP-2 were the same as observed in cells undergoing apoptosis [Kaufmann et al. (1993) Cancer Res. 53, 3976-3985; Wang et al. (1996) supra]. […]

CPP32 [3] = test: dATP and cytochrome c-dependent activation of CPP32 in S-100 from human monoblastic U937 cells; type: biochemical
Experimental: as §1, §2, §3

Row | Compound | dATP-dependent CPP32 activating activity of S-100 (CPP32 [1]; 293 cell S-100, 1 mM dATP) | cleavage of 35S-labeled PARP by activated extract (CPP32 [2]) | cleavage of 35S-labeled SREBP-2 by activated extract (CPP32 [2]) | activation of CPP32 in HeLa cell S-100 (CPP32 [2]; 30° C., 1 hr, Western blot) | dATP-dependent CPP32 activating activity of S-100 (CPP32 [3]; U937 cell S-100, 1 mM dATP) | restoration of CPP32 activating activity (CPP32 [1]; 293 cell S-100 immunodepleted of cytochrome c, 0.2 μg, 1 mM dATP) | restoration of CPP32 activating activity (CPP32 [3]; U937 cell S-100 immunodepleted of cytochrome c, 0.2 μg, 1 mM dATP)
1 | Nc1ncnc2c1ncn2[C@H]1C[C@H](O)[C@@H](COP(=O)(O)OP(=O)(O)OP(=O)(O)O)O1 [dATP, deoxyadenosine-5-triphosphate] | contained a dATP-dependent CPP32 activating activity | readily cleaved PARP into 85 kDa and 24 kDa fragments | SREBP-2 into 55 kDa and 70 kDa fragments | most of the CPP32 in the HeLa cell S-100 was activated | contained a dATP-dependent CPP32 activating activity | – | –
2 | Apaf-2: 15 kDa factor bound to phosphocellulose column, purified from HeLa S-100, identified as human cytochrome c | – | – | – | – | – | restored the activity | restored the activity
